Drawing on US5696151A, “Compounds useful for the inhibition of the replication of HIV-1 and HIV-1 mutants” (priority 1995, dated 1997), this text covers EC50 and CC50 for 11 molecules.

A word on the EC50: it is the concentration giving half of the maximal effect. The CC50 is the concentration giving 50% cytotoxicity. Low readings indicate harm at low concentration, high ones better tolerance by the cells.

Converted amounts (≈) assume the structure as drawn.

Type in all cases: cell-based
The test system of one data set is HIV-1(IIIB). In words: Inhibition of HIV-1 induced syncytium formation in CEM cells, wild type. As to conditions: Human immunodeficiency virus 1, IIIB, CCRF-CEM, 96 h, Table 2B, WT = HIV-1(IIIB), day 4, averages of 2 to 3 independent experiments, read-out: Antiviral Activity of Comparative Compounds EC50, WT. An excerpt: (§1) CEM cells were obtained from the American Tissue Cell Culture Collection (Rockville, Md.). HIV-1(IIIB) was originally obtained from the culture supernatant of persistently HIV-1-infected H9 cells and was provided by R. C. Gallo and M. Popovic (National Cancer Institute, National Institutes of Health, Bethesda, Md.). […] 67: 5353-5359 (1993); HIV-1/Lys-138 ("Lys-138") was selected for resistance against TSAO-m^3T as described in Balzarini et al, Virology 192: 246-253 (1993) and Balzarini et al, Proc. Nat. Acad. Sci. USA 90: 6952-6956 (1993); HIV-1/181-Cys ("181-Cys") was selected for resistance against pyridinone L-697,661 as described in Balzarini et al, Virology 192: 246-253 (1993); and HIV-1/188-His ("188-His") was selected for resistance against HEPT as described in Balzarini et al, Mol. Pharmocol. 44: 694-701 (1993). 188-His was then further converted to HIV-1/188-Leu "188-Leu") upon further passage in cell culture in the absence of the HEPT.
(§2) CEM cells were suspended at ≈300,000 cells per ml of culture medium and infected with approximately 100 CCID50 (CCID50 being the 50% cell culture infective dose) of HIV-1(IIIB) or one of the HIV-1 RT mutant strains described above. Then 100 μl of the infected cell suspensions was added to 200 μl microtiter plate wells containing 100 μl of appropriate serial (5-fold) dilutions of the test compounds. The inhibitory effect of the test compounds on HIV-1 induced syncytium formation in CEM cells was examined microscopically on day 4 post infection.

For the next data set, the system named is HIV-1/100-Ile. In words: Inhibition of HIV-1 induced syncytium formation in CEM cells, RT mutant 100-Ile. As to conditions: Human immunodeficiency virus 1, CCRF-CEM, 96 h, Table 2B, day 4, averages of 2 to 3 independent experiments, read-out: Antiviral Activity of Comparative Compounds EC50, 100-Ile.
Source text: as §1, §2

The next data set concerns HIV-1/106-Ala. The data set is described as follows: Inhibition of HIV-1 induced syncytium formation in CEM cells, RT mutant 106-Ala. The settings on record: Human immunodeficiency virus 1, CCRF-CEM, 96 h, Table 2B, day 4, averages of 2 to 3 independent experiments, read-out: Antiviral Activity of Comparative Compounds EC50, 106-Ala.
Source text: as §1, §2

In the next data set the test system is HIV-1/Lys-138. In words: Inhibition of HIV-1 induced syncytium formation in CEM cells, RT mutant 138-Lys. The settings on record: Human immunodeficiency virus 1, CCRF-CEM, 96 h, Table 2B, day 4, averages of 2 to 3 independent experiments, read-out: Antiviral Activity of Comparative Compounds EC50, 138-Lys.
Source text: as §1, §2

For the next data set, the system named is HIV-1/181-Cys. The data set is described as follows: Inhibition of HIV-1 induced syncytium formation in CEM cells, RT mutant 181-Cys. The settings on record: Human immunodeficiency virus 1, CCRF-CEM, 96 h, Table 2B, day 4, averages of 2 to 3 independent experiments, read-out: Antiviral Activity of Comparative Compounds EC50, 181-Cys.
Source text: as §1, §2

The next data set is described as follows: in vitro. The settings on record: human, cem cells, CC50 (50% cytostatic concentration), Table 2B; CEM cell proliferation; averages of 2 to 3 independent experiments.
Source text: as §1
^b 50% cytostatic concentration (i.e., compound concentration require
to inhibit CEM cell proliferation by 50%)

For `Cc1occc1C(=S)Nc1ccc(Cl)c(C(=O)OCC(F)(F)F)c1` [Compound 106], the EC50 was determined as 0.007 µg/mL (≈ 0.0185 µM) with HIV-1(IIIB); 0.5 µg/mL (≈ 1.32 µM) in the data set with HIV-1/100-Ile; 0.08 µg/mL (≈ 0.212 µM) in the data set with HIV-1/106-Ala; 0.065 µg/mL (≈ 0.172 µM) in the data set with HIV-1/Lys-138; 0.085 µg/mL (≈ 0.225 µM) in the data set on HIV-1/181-Cys. This molecule also displayed a CC50 in “in vitro” above 100 µg/mL.
For `CCC(CC)OC(=O)c1cc(NC(=S)c2ccoc2C)ccc1Cl` [Compound 107], the EC50 with HIV-1(IIIB) came to 0.04 µg/mL (≈ 0.109 µM); in the data set on HIV-1/100-Ile it was 0.6 µg/mL (≈ 1.64 µM); in the data set on HIV-1/106-Ala, 0.3 µg/mL (≈ 0.82 µM); in the data set with HIV-1/Lys-138, 0.15 µg/mL (≈ 0.41 µM); in the data set on HIV-1/181-Cys, 0.3 µg/mL (≈ 0.82 µM). Further, the midpoint of cytotoxicity in “in vitro”, the CC50, lay at 16 µg/mL (≈ 43.7 µM).
For the molecule `CCC(CC)COC(=O)c1cc(NC(=S)c2ccoc2C)ccc1Cl` [Compound 108], the EC50 in the data set with HIV-1(IIIB) came to 0.007 µg/mL (≈ 0.0184 µM); in the data set with HIV-1/100-Ile, 0.27 µg/mL (≈ 0.711 µM); in the data set on HIV-1/106-Ala, 0.08 µg/mL (≈ 0.211 µM); in the data set on HIV-1/Lys-138, 0.07 µg/mL (≈ 0.184 µM); in the data set with HIV-1/181-Cys, 0.08 µg/mL (≈ 0.211 µM). This molecule also returned a CC50 in the data set “in vitro” of 7 µg/mL (≈ 18.4 µM).
As to `Cc1occc1C(=S)Nc1ccc(Cl)c(C(=O)OC2CCCC2)c1` [Compound 109], the EC50 worked out at 0.005 µg/mL (≈ 0.0137 µM) with HIV-1(IIIB); 0.17 µg/mL (≈ 0.467 µM) in the data set on HIV-1/100-Ile; 0.04 µg/mL (≈ 0.11 µM) with HIV-1/106-Ala; 0.035 µg/mL (≈ 0.0962 µM) in the data set with HIV-1/Lys-138; 0.045 µg/mL (≈ 0.124 µM) with HIV-1/181-Cys. In addition, the midpoint of cytotoxicity in “in vitro”, the CC50, lay at 4.3 µg/mL (≈ 11.8 µM).
For the molecule `C=CC(C)(C)OC(=O)c1cc(NC(=S)c2ccoc2C)ccc1Cl` [Compound 110], the EC50 in the data set on HIV-1(IIIB) was found to be 0.04 µg/mL (≈ 0.11 µM); with HIV-1/100-Ile, 4 µg/mL (≈ 11 µM); with HIV-1/106-Ala, 0.2 µg/mL (≈ 0.55 µM); in the data set on HIV-1/Lys-138 it was 0.1 µg/mL (≈ 0.275 µM); with HIV-1/181-Cys, 0.5 µg/mL (≈ 1.37 µM). The molecule also yielded a CC50 in “in vitro” of 25 µg/mL (≈ 68.7 µM).
Turning to `C=CCON=Cc1cc(NC(=S)c2ccoc2C)ccc1Cl` [Compound 111], the EC50 in the data set with HIV-1(IIIB) worked out at 0.007 µg/mL (≈ 0.0209 µM); with HIV-1/100-Ile, 0.5 µg/mL (≈ 1.49 µM); in the data set on HIV-1/106-Ala, 0.085 µg/mL (≈ 0.254 µM); in the data set with HIV-1/Lys-138 it was 0.077 µg/mL (≈ 0.23 µM); in the data set with HIV-1/181-Cys, 0.3 µg/mL (≈ 0.896 µM). The molecule further yielded a cytotoxic concentration (CC50) in “in vitro” of 12 µg/mL (≈ 35.8 µM).
`C#CCON=Cc1cc(NC(=S)c2ccoc2C)ccc1Cl` [Compound 112]: the EC50 in the data set with HIV-1(IIIB) turned out to be 0.025 µg/mL (≈ 0.0751 µM); in the data set with HIV-1/100-Ile, 0.75 µg/mL (≈ 2.25 µM); in the data set with HIV-1/106-Ala, 0.35 µg/mL (≈ 1.05 µM); in the data set on HIV-1/Lys-138, 0.5 µg/mL (≈ 1.5 µM); with HIV-1/181-Cys, 0.8 µg/mL (≈ 2.4 µM). Also, in “in vitro”, the CC50 came out at 10 µg/mL (≈ 30 µM).
For `Cc1occc1C(=S)Nc1ccc(Cl)c(C=NOC2CCCC2)c1` [Compound 113], the EC50 is 0.023 µg/mL (≈ 0.0634 µM) in the data set on HIV-1(IIIB); 0.27 µg/mL (≈ 0.744 µM) in the data set on HIV-1/100-Ile; 0.085 µg/mL (≈ 0.234 µM) with HIV-1/106-Ala; 0.15 µg/mL (≈ 0.413 µM) with HIV-1/Lys-138; 0.13 µg/mL (≈ 0.358 µM) with HIV-1/181-Cys. It took 5.4 µg/mL (≈ 14.9 µM) to reach half-maximal cytotoxicity in the data set “in vitro” (CC50).
For the molecule `Cc1occc1C(=S)Nc1ccc(Cl)c(OCC(=O)OC(C)(C)C)c1` [Compound 115], the EC50 was 0.29 µg/mL (≈ 0.759 µM) in the data set with HIV-1(IIIB); 0.65 µg/mL (≈ 1.7 µM) in the data set on HIV-1/100-Ile; 0.2 µg/mL (≈ 0.524 µM) in the data set with HIV-1/106-Ala; 0.77 µg/mL (≈ 2.02 µM) in the data set on HIV-1/Lys-138; 0.5 µg/mL (≈ 1.31 µM) with HIV-1/181-Cys. It took 4.3 µg/mL (≈ 11.3 µM) to reach half-maximal cytotoxicity in “in vitro” (CC50).
Turning to `CCOC(=O)CSc1cc(NC(=S)c2ccoc2C)ccc1Cl` [Compound 116], the EC50 with HIV-1(IIIB) was 0.085 µg/mL (≈ 0.23 µM); with HIV-1/100-Ile, 1.8 µg/mL (≈ 4.87 µM); in the data set on HIV-1/106-Ala, 5.5 µg/mL (≈ 14.9 µM); with HIV-1/Lys-138, 0.6 µg/mL (≈ 1.62 µM); in the data set with HIV-1/181-Cys, 2 µg/mL (≈ 5.41 µM). In the data set “in vitro”, the CC50 was at least 100 µg/mL.
`C#CCOc1cc(NC(=S)c2ccoc2C)ccc1Cl` [Compound 117]: the EC50 worked out at 0.06 µg/mL (≈ 0.196 µM) with HIV-1(IIIB); 5 µg/mL (≈ 16.4 µM) in the data set with HIV-1/100-Ile; 0.75 µg/mL (≈ 2.45 µM) with HIV-1/106-Ala; 0.35 µg/mL (≈ 1.14 µM) with HIV-1/Lys-138; 4 µg/mL (≈ 13.1 µM) in the data set with HIV-1/181-Cys. Also, the CC50 in “in vitro” came to 18 µg/mL (≈ 58.9 µM).
